Starred links: 1 amine or outer side, 2 acyl side, 3 side chain; linkers in the order of their positions; H or OH if unused. Positions of bridges follow the written chain, without caps; N, C: chain ends. Residues, ends and D or L forms follow the SMILES beside them. *: point of attachment. 5FAM = O=C1OC2(c3ccc(O)cc3Oc3cc(O)ccc32)c2ccc(C(=O)*)cc21; CH2CH2CO = O=C(CC[*:1])[*:2]
What was measured:
[1] = physiological conditions; cited from earlier work
[2] = target: HDAC8 (Homo sapiens, UniProt Q9BY41); assay: biochemical
Chain of HDAC8 (Q9BY41 whole entry): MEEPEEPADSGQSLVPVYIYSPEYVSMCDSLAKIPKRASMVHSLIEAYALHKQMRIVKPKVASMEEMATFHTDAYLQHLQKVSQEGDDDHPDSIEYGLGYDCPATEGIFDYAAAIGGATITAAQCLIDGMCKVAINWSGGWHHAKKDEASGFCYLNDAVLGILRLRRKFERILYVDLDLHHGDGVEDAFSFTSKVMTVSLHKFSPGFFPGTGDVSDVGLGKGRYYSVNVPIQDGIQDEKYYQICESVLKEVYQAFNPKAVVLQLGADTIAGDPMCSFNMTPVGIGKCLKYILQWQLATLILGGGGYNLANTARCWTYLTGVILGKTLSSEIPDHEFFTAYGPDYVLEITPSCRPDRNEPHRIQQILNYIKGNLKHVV
Experimental: Applicants incubated a 25 nM 5-FAM-conjugated cyclic peptide and different concentrations of a target protein (160 nM to 160 μM) in black 96-well plates in a 200 μL total volume that was adjusted by adding a PBS buffer. The fluorescence polarization was measured in a microplate reader at Ex/Em=490 nm/520 nm.

SMILES	second-order rate constant of reaction with a thiol [1] [M⁻¹ s⁻¹]	Kd [2] [µM]
C=CC(=O)NCCCC[C@H](N)C(=O)O [AcrK, N^ε-acryloyl-lysine]	0.004	
CSCC[C@@H]1NC(=O)[C@H](Cc2c[nH]c3ccccc23)NC(=O)[C@H](CC(C)C)NC(=O)[C@H](CO)NC(=O)[C@H](CCC(N)=O)NC(=O)[C@@H](N)CSCCC(=O)NCCCC[C@@H](C(=O)N[C@@H](CCCCNC(=O)c2ccc3c(c2)C(=O)OC32c3ccc(O)cc3Oc3cc(O)ccc32)C(N)=O)NC(=O)[C@H](CC(N)=O)NC1=O [CycH8a, CQSLWMNX] (H-CQSLWMNKK(5FAM)-NH2; linker 1-8 via CH2CH2CO)		7.1

From patent publication US12460317B2 (The Texas A&M University System, priority 2019, dated 2025)
